From PMC3724985, “Isolation, biochemical characterization, and cloning of a bacteriocin from the poultry-associated Staphylococcus aureus strain CH-91” (Applied Microbiology and Biotechnology, 2012)

Tested on: StpC
Test: Residual proteolytic activity of culture media with E-64 (Hide Powder Azure)
Assay type: biochemical
Conditions: E-64 at 0.01, 0.1 and 1.0 mM in S. aureus CH-91 culture (TSB, 37 °C), 0.1 M Tris–HCl pH 7.5, 5 mM cysteine, 5 mM EDTA
Method: S. aureus CH-91 was cultured at 37 °C in TSB supplemented with the cysteine peptidase inhibitor E-64 (1-[N-[(L-3-trans-carboxyoxirane-2-carbonyl)-L-leucyl] amino]-4-guanidinobutane; Sigma) at final concentrations of 1.0, 0.1, and 0.01 mM. Aliquots were removed at 5, 10, and 24 h, and the bacteria-free supernatants were obtained by centrifugation.
The residual proteolytic activity of collected culture media was determined at 37 °C using Hide Powder Azure (Calbiochem) in 0.1 M Tris–HCl (pH 7.5) supplemented with 5 mM cysteine and 5 mM EDTA.

SMILES: CC(C)C[C@H](NC(=O)[C@H]1O[C@@H]1C(=O)O)C(=O)NCCCCNC(=N)N (relative stereo) [E-64, 1-[N-[(L-3-trans-carboxyoxirane-2-carbonyl)-L-leucyl]amino]-4-guanidinobutane]
- residual proteolytic activity in culture media containing the inhibitor: No residual proteolytic activity was detected
